Experiments:
Assay type in all cases: biochemical
Conditions in all cases: HotSpot functional assay, isolated kinase enzyme, 33P-ATP
IRAK1 = target: T1, IRAK1 (Homo sapiens, UniProt P51617); assay: RBC HotSpot Kinase Assay, IRAK1
T1 construct: purchased RBC (Reaction Biology) HotSpot assay
Text: (§1) This assay uses the isolated kinase enzyme. This assay is very useful for determining competition of the inhibitor for ATP and/or substrates and for measuring the kinetics of enzyme inhibition. […] Unlike kinase binding assays that measure competition for ATP, the HotSpot Kinase Assay is a functional assay that measures catalytic activity; as such it measures relative functional potency regardless of the mechanism of enzyme inhibition. This assay uses the form of the various enzymes that are easiest to express, which may not necessarily be the form of the enzyme that exist in the cell. (Sometimes the carboxy terminus has been truncated to aid in expression, or, if it is a receptor kinase, the enzyme itself is isolated from the other parts of the receptor that are involved in regulating kinase activity.)
(§2) The reagent used was as follows: Base Reaction buffer; 20 mM Hepes (pH 7.5), 10 mM MgCl2, 1 mM EGTA, 0.01% Brij35, 0.02 mg/mi BSA, 0.1 mM Na3VO4, 2 mM DTT, 1% DMSO. Required cofactors were added individually to each kinase reaction.
(§3) The reaction procedure was as follows: • 1) Substrates were prepared in freshly prepared Reaction Buffer. • 2) Any required cofactors were delivered to the substrate solution above. • 3) Kinase was delivered into the substrate solution and gently mixed. • 4) Compounds were delivered in 100% DMSO into the kinase reaction mixture by Acoustic technology (Echo550, nanoliter range), followed by incubation for 20 min at room temp. • 5) ^33P-ATP was delivered into the reaction mixture to initiate the reaction. • 6) The mixture was incubated for 2 hours at room temperature. • 7) Kinase activity was detected by P81 filter-binding method.

IRAK4 = target: T2, IRAK4 (Homo sapiens, UniProt Q9NWZ3); assay: RBC HotSpot Kinase Assay, IRAK4; parameters: purchased RBC (Reaction Biology) HotSpot assay
T2 sequence (Q9NWZ3 1-460): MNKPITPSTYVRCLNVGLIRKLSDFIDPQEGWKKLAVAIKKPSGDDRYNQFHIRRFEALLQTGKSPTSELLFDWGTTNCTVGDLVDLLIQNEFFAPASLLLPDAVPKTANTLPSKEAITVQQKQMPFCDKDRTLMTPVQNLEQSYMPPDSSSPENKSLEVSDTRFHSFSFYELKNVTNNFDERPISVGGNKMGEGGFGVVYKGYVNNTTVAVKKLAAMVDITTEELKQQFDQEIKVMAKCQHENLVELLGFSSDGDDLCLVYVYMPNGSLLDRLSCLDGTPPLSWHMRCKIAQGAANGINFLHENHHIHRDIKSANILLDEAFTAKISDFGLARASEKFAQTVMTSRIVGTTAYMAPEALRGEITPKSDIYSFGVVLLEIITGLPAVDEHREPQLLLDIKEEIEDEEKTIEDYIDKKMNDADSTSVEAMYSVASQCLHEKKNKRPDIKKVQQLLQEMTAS
Text: as §1, §2, §3

FLT3 = target: T3, FLT3 (Homo sapiens, UniProt P36888); assay: RBC HotSpot Kinase Assay, FLT3; parameters: purchased RBC (Reaction Biology) HotSpot assay
T3 sequence (P36888 27-993): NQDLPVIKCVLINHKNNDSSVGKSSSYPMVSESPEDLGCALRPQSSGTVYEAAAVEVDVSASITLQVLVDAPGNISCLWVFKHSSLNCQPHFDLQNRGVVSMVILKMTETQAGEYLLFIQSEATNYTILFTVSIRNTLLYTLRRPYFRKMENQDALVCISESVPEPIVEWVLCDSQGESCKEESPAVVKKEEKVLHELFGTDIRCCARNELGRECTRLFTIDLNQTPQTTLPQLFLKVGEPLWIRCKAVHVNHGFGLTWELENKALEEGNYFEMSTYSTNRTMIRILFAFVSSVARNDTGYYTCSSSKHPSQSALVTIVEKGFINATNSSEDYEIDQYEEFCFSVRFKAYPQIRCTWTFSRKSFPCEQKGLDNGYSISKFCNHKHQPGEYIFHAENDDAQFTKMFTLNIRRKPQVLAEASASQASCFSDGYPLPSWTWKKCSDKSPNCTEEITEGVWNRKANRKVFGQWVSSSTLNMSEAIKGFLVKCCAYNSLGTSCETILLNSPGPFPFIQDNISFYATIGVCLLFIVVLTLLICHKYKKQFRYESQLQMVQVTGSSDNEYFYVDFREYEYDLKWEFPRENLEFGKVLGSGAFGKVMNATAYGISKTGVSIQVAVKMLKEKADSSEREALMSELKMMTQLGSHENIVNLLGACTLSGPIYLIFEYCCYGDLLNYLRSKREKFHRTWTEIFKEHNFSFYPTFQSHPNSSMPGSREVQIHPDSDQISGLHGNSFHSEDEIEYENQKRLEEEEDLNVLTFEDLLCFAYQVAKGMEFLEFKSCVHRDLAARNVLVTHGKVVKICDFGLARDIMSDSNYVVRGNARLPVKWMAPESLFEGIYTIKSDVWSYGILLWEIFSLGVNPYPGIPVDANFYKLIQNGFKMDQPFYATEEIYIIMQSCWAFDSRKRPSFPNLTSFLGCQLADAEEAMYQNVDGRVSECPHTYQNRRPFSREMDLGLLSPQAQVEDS
Text: as §1, §2, §3

T1 sequence (P51617 whole entry): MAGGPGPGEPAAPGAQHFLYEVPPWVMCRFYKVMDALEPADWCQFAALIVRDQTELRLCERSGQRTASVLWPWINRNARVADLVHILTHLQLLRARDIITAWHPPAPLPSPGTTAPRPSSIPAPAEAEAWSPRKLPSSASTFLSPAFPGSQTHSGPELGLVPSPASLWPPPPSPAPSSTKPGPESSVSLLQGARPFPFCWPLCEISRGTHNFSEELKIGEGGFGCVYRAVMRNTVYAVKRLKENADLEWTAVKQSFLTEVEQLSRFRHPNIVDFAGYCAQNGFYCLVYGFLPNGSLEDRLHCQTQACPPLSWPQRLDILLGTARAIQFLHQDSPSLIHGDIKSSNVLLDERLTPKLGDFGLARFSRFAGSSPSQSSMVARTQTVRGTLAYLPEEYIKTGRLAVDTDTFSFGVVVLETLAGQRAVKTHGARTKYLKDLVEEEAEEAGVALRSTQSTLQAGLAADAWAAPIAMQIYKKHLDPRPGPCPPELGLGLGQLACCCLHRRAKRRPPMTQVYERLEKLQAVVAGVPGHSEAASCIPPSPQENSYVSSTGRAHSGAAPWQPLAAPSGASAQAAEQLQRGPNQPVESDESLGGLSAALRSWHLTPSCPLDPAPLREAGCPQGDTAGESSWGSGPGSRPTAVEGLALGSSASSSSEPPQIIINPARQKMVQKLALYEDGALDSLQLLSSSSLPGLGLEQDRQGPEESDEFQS

SMILES	IC50 (IRAK1) [nM]	IC50 (IRAK4) [nM]	IC50 (FLT3) [nM]
COc1cc2ncc(-c3nc(N[C@H]4CNC[C@@H]4F)c(F)cc3F)n2nc1C1CC(C)(C)C1 [Compound 8a, 6-(6-(3,3-dimethylcyclobutyl)-7-methoxyimidazo[1,2-b]pyridazin-3-yl)-3,5-difluoro-N-((3S,4S)-4-fluoropyrrolidin-3-yl)pyridin-2-amine]	190	9	0.6
COc1cc2ncc(-c3nc(N[C@H]4CNCC[C@@H]4F)c(F)cc3F)n2nc1C1CC(C)(C)C1 [Compound 9a, 6-(6-(3,3-dimethylcyclobutyl)-7-methoxyimidazo[1,2-b]pyridazin-3-yl)-3,5-difluoro-N-((3S,4S)-4-fluoropiperidin-3-yl)pyridin-2-amine]	74	26	< 0.5
COc1cc2ncc(-c3nc(N[C@@H]4CCCNC4)c(F)cc3F)n2nc1C1CC2(CCC2)C1 [Compound 11a, (R)-3,5-difluoro-6-(7-methoxy-6-(spiro[3.3]heptan-2-yl)imidazo[1,2-b]pyridazin-3-yl)-N-(piperidin-3-yl)pyridin-2-amine]	30	16	< 0.5
COc1cc2ncc(-c3nc(N[C@H]4CNC[C@@H]4F)c(F)cc3F)n2nc1C1CCCC1 [Compound 16a, 6-(6-cyclopentyl-7-methoxyimidazo[1,2-b]pyridazin-3-yl)-3,5-difluoro-N-((3S,4S)-4-fluoropyrrolidin-3-yl)pyridin-2-amine]	7	2	< 0.5
COc1cc2ncc(-c3nc(N[C@@H]4CCCNC4)c(F)cc3F)n2nc1C1CCCC1 [Compound 17a, (R)-6-(6-cyclopentyl-7-methoxyimidazo[1,2-b]pyridazin-3-yl)-3,5-difluoro-N-(piperidin-3-yl)pyridin-2-amine]	7	2	< 0.5
COc1cc2ncc(-c3nc(N[C@H]4CNCC[C@@H]4F)c(F)cc3F)n2nc1C1CCCC1 [Compound 18a, 6-(6-cyclopentyl-7-methoxyimidazo[1,2-b]pyridazin-3-yl)-3,5-difluoro-N-((3S,4S)-4-fluoropiperidin-3-yl)pyridin-2-amine]	3	0.6	< 0.5
COc1cc2ncc(-c3nc(N[C@H]4CNC[C@@H]4F)c(F)cc3F)n2nc1C1CCCCC1 [Compound 19a, 6-(6-cyclohexyl-7-methoxyimidazo[1,2-b]pyridazin-3-yl)-3,5-difluoro-N-((3S,4S)-4-fluoropyrrolidin-3-yl)pyridin-2-amine]	17	3	< 0.5
COc1cc2ncc(-c3nc(N[C@@H]4CCCNC4)c(F)cc3F)n2nc1C1CCCCC1 [Compound 20a, (R)-6-(6-cyclohexyl-7-methoxyimidazo[1,2-b]pyridazin-3-yl)-3,5-difluoro-N-(piperidin-3-yl)pyridin-2-amine]	6	6	< 0.5
COc1cc2ncc(-c3nc(N[C@H]4CNCC[C@@H]4F)c(F)cc3F)n2nc1C1CCCCC1 [Compound 21a, 6-(6-cyclohexyl-7-methoxyimidazo[1,2-b]pyridazin-3-yl)-3,5-difluoro-N-((3S,4S)-4-fluoropiperidin-3-yl)pyridin-2-amine]	5	21	< 0.5
COc1cc2ncc(-c3nc(N[C@H]4CNCC[C@@H]4F)c(F)cc3F)n2nc1N1CCCC1=O [Compound 22a, 1-(3-(3,5-difluoro-6-(((3S,4S)-4-fluoropiperidin-3-yl)amino)pyridin-2-yl)-7-methoxyimidazo[1,2-b]pyridazin-6-yl)pyrrolidin-2-one]	55	9	< 0.5
COc1cc2ncc(-c3nc(N[C@@H]4CCCNC4)c(F)cc3F)n2nc1N1CCCC1=O [Compound 23a, (R)-1-(3-(3,5-difluoro-6-(piperidin-3-ylamino)pyridin-2-yl)-7-methoxyimidazo[1,2-b]pyridazin-6-yl)pyrrolidin-2-one]	348	48	2

— US20250368648A1, “MULTI-CYCLIC IRAK AND FLT3 INHIBITING COMPOUNDS AND USES THEREOF” (CHILDREN'S HOSPITAL MEDICAL CENTER, priority 2022, published 2025)
